Laboratory results published in PMC9502272, “A Metabolomics Approach for Predicting OATP1B-Type Transporter-Mediated Drug–Drug Interaction Liabilities” (Pharmaceutics, 2022).
Where a name gives a salt, the structure may show the parent alone.

Target: T1, Oatp1b2 (Mus musculus, UniProt Q9JJL3)
T1 sequence (Q9JJL3 1-689): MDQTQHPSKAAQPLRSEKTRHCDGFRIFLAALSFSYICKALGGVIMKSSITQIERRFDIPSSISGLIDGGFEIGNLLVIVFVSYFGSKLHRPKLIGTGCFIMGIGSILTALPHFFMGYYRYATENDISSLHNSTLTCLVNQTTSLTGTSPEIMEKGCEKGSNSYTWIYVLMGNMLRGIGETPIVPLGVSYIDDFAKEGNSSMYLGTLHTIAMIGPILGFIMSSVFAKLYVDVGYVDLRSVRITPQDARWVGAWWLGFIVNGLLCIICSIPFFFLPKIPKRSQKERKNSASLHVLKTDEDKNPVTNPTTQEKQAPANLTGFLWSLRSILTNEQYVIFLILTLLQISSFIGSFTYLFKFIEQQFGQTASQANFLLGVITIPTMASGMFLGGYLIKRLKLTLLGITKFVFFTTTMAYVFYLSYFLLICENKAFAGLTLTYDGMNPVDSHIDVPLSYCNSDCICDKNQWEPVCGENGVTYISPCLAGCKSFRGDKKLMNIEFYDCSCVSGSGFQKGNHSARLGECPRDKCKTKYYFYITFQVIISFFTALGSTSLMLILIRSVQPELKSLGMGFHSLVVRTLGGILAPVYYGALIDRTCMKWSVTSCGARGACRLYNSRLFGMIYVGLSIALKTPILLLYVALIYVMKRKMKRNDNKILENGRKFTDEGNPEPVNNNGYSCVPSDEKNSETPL
Experiment: Untargeted metabolomics of plasma from untreated wild-type and Oatp1b2(−/−) mice
Conditions: for Fold of Change KO/WT: plasma of untreated Oatp1b2-deficient (KO) vs wild-type (WT) mice, semi-quantitative, positive = higher in KO, n = 6 per group; for Mean value KO: plasma of untreated Oatp1b2-deficient mice; for Mean value KO / Mean value WT: raw area counts rescaled to median = 1; for Mean value WT: plasma of untreated wild-type mice

Compound	Fold of Change KO/WT	Mean value KO	Mean value WT
CSC[C@H](NC(=O)CC[C@H](N)C(=O)O)C(=O)NCC(=O)O [S-methylglutathione]	1.19	1.11	.931
CCCCC/C=C\C/C=C\CCCCCCCC(N)=O [linoleamide (18:2n6)]	1.36	1.29	.945
nonadecenamide (19:1)	1.39	1.27	.917
O=C(O)[C@H]1O[C@@H](Oc2ccccc2)[C@H](O)[C@@H](O)[C@@H]1O [phenol glucuronide]	1.87	1.28	.684
NCCOP(=O)(O)OCC(O)CO (centres unmarked) [glycerophosphoethanolamine]	1.57	1.31	.831
CCCCCCCCCCCCCCCCCC(=O)OC[C@@H](O)COP(=O)(O)OCC(O)CO (some centres unmarked) [1-stearoyl-GPG (18:0)]	4.16	1.76	.423
CCCCCCCCCCCCCCCC/C=C\OC[C@@H](O)COP(=O)(O)OCCN [1-(1-enyl-stearoyl)-GPE (P-18:0)]	1.72	1.28	.747
C[N+]1(C)CCCC[C@H]1C(=O)[O-] [homostachydrine]	1.19	1.09	.915
heptadecenamide (17:1)	1.37	1.29	.939
CCO[C@@H]1O[C@H](CO)[C@@H](O)[C@H](O)[C@H]1O [ethyl beta-glucopyranoside]	1.41	1.17	.826
O=C1Cc2ccccc2N1 [indolin-2-one]	1.51	1.20	.797
CCCCCCCCCCCCCCCCCC(N)=O [stearamide (18:0)]	1.49	1.19	.800
C[N+](C)(C)CCOP(=O)([O-])OC[C@H](O)CO [glycerophosphorylcholine (GPC)]	1.34	1.12	.836
CCCCC/C=C\C/C=C\C/C=C\C/C=C\CCCC(=O)OC[C@@H](O)COP(=O)(O)O [1-arachidonoyl-GPA (20:4)]	1.80	1.17	.652
CCCCCCC=CCCCCCCCC(=O)OC(CC(=O)[O-])C[N+](C)(C)C (centres unmarked) [palmitoleoylcarnitine (C16:1)]	1.63	1.54	.943
CCCCCC(=O)NCC(=O)O [hexanoylglycine]	1.59	1.40	.880
Cc1ccc(O[C@@H]2O[C@H](C(=O)O)[C@@H](O)[C@H](O)[C@H]2O)cc1 [p-cresol glucuronide]	11.8	5.92	.503
taurocholenate sulfate	–	1.08	.838
CC(O)(CCO)CC(=O)O (centres unmarked) [mevalonate]	1.24	1.15	.925
CCCCC/C=C\C/C=C\C/C=C\C/C=C\CCCC(=O)O[C@H](CC(=O)[O-])C[N+](C)(C)C [arachidonoylcarnitine (C20:4)]	1.92	1.53	.796
CCCCCCCCCCCCCCCC(=O)OC[C@@H](O)COP(=O)([O-])OCC[N+](C)(C)C [1-palmitoyl-GPC (16:0)]	1.29	1.12	.868
eicosenamide (20:1)	1.43	1.27	.885
O=C(O)CCCCCCCCC(O)CC(=O)O (centres unmarked) [3-hydroxydodecanedioate]	4.32	1.64	.380
CCCCCCCC/C=C\CCCCCCCC(=O)O[C@H](COC(=O)CCCCCCCCCCCCCCC)COP(=O)([O-])OCC[N+](C)(C)C [1-palmitoyl-2-oleoyl-GPC (16:0/18:1)]	1.30	1.08	.834
eicosadienamide (20:2)	1.46	1.27	.869
CCCCC/C=C\C/C=C\CCCCCCCC(=O)O[C@H](CC(=O)[O-])C[N+](C)(C)C [linoleoylcarnitine (C18:2)]	1.62	1.36	.838

Further lines, results first:

Fold of Change KO/WT	Mean value KO	Mean value WT	Compound
1.36	1.12	.819	CC(=O)Nc1ccn([C@@H]2O[C@H](CO)[C@@H](O)[C@H]2O)c(=O)n1 [N4-acetylcytidine]
1.40	1.17	.835	CC(C)(O)CC(=O)O [beta-hydroxyisovalerate]
3.45	2.06	.597	C[N+](C)(C)CCCCC(=O)[O-] [N,N,N-trimethyl-5-aminovalerate]
1.36	1.16	.847	CCCCCCCCCCCCCCCCCCCCCCCC(=O)OC[C@@H](O)COP(=O)([O-])OCC[N+](C)(C)C [1-lignoceroyl-GPC (24:0)]
1.86	1.46	.784	CC/C=C\C/C=C\C/C=C\CCCCCCCC(=O)O[C@H](COC(=O)CCCCCCC/C=C\CCCCCC)COP(=O)([O-])OCC[N+](C)(C)C [1-palmitoleoyl-2-linolenoyl-GPC (16:1/18:3)]
1.16	1.08	.927	COC1=C(O)[C@@H]([C@@H](O)CO)OC1=O [2-O-methylascorbic acid]
3.17	1.59	.500	O=C(O)[C@H]1OC(O)[C@H](O)[C@@H](O)[C@@H]1O (mixture of isomers) [glucuronate]
1.44	1.20	.833	O=C(O)CCCCCCCCC(=O)O [sebacate (C10-DC)]
5.40	2.00	.371	CCCCCCCCCCCCCCCC(=O)OC[C@@H](O)COP(=O)(O)OCC(O)CO (some centres unmarked) [1-palmitoyl-GPG (16:0)]
1.72	1.28	.744	CCCC(=O)NCC(=O)O [butyrylglycine]
1.32	1.18	.895	CCCCCCCC/C=C\CCCCCCCC(=O)O[C@H](CO/C=C\CCCCCCCCCCCCCC)COP(=O)(O)OCCN [1-(1-enyl-palmitoyl)-2-oleoyl-GPE (P-16:0/18:1)]
1.75	1.37	.785	CCCCC/C=C\C/C=C\CCCCCCCCCC(=O)OC(CC(=O)[O-])C[N+](C)(C)C (centres unmarked) [dihomo-linoleoylcarnitine (C20:2)]
4.28	1.86	.435	Cc1ccc(OS(=O)(=O)O)c(N)c1 [2-amino-p-cresol sulfate]
1.34	1.23	.915	CSC=CC(O)C(O)C(=O)O (centres unmarked) [2,3-dihydroxy-5-methylthio-4-pentenoate (DMTPA)]
1.31	1.22	.927	OC[C@@H](O)[C@@H](O)CO [erythritol]
1.47	1.28	.868	Cc1ncc(CO)c(C=O)c1O [pyridoxal]
1.65	1.27	.765	CCCCC/C=C\C/C=C\CCCCCCCC(=O)OC[C@@H](O)COP(=O)(O)OC1[C@H](O)[C@H](O)C(O)[C@H](O)[C@H]1O (some centres unmarked) [1-linoleoyl-GPI (18:2)]
1.66	1.36	.818	O=C(O)CCCCCCCCCCCCCCCC(=O)O [heptadecanedioate (C17-DC)]
1.20	1.07	.892	CCCCCCCC/C=C\CCCCCCCC(=O)O[C@H](COC(=O)CCCCCCCCCCCCCCCCC)COP(=O)([O-])OCC[N+](C)(C)C [1-stearoyl-2-oleoyl-GPC (18:0/18:1)]
2.02	1.34	.664	CCCCCCCCCCCCCCCC(=O)OC[C@H](COP(=O)(O)OCCN)OC(=O)CCCCCCCCCCCCCCC [1,2-dipalmitoyl-GPE (16:0/16:0)]
